# Source: patent EP2149554A1, “Indolyamides as modulators for an EP2 receptor” (Bayer Schering Pharma Aktiengesellschaft, priority 2008, dated 2010)
# What was measured:
# [1] = tested on: Kumulus-Eizell Komplexe; experiment: cumulus expansion test in vitro; assay type: cell-based, Mäusen (Stamm : CD1 (ICR)); details: competing with PGE2
# From the text: Im prä-ovulatorischen antralen Follikel ist die Eizelle von Kumulus Zellen umgeben, die einen dichten Zellkranz um die Eizelle bilden. Nach dem LH-Peak (Lutenisierendes Hormon) wird eine Reihe von Prozessen aktiviert, die eine starke morphologische Veränderung dieses Zellkranzes aus Kumulus Zellen zur Folge hat. Hierbei bilden die Kumulus Zellen eine extrazelluläre Matrix, die zur sogenannten Kumulus Expansion führt (Vanderhyden et al. Dev Biol. 1990 Aug;140(2):307-317). Diese Kumulus Expansion ist ein wichtiger Bestandteil des ovulatorischen Prozesses und der nachfolgenden Möglichkeit zur Fertilisation. Bei der Kumulus Expansion sind Prostaglandine und hier das Prostaglandin E2, dessen Synthese durch den LH-Peak induziert wird, von entscheidender Bedeutung. Prostanoid EP2 Knock-out Mäuse (Hizaki et al. Proc Natl Acad Sci U S A. 1999 Aug 31 ;96(18):10501-6.) zeigen eine deutlich verminderte Kumulus Expansion und starke Subfertilität, was die Bedeutung des Prostanoid EP2-Rezeptors für diesen Prozess demonstriert.
# 2.2. Kumulus Expansions Test in vitro
# In immaturen weiblichen Mäusen (Stamm : CD1 (ICR) von Charles River) wurde in einem Alter von 14 - 18 Tagen die Follikulogenese durch eine einmalige Gabe (intraperitoneal) von 10 I.E. PMSG (Pregnant Mare Serum Gonadotropine; Sigma G-4877, Lot 68H0909) induziert. […]
# [2] = biological target: T1, EP2-Subtyp des humanen PGE2-Rezeptors (Homo sapiens, UniProt P43116); experiment: cAMP antagonism test (HTRF cAMP detection, in presence of PGE2); assay type: cell-based; details: cAMP Antagonismustest; PGE2 as agonist; read-out: Antagonismus [IC50
# T1 construct: host or cells: cells in a culture plate
# T1 sequence (P43116 whole entry): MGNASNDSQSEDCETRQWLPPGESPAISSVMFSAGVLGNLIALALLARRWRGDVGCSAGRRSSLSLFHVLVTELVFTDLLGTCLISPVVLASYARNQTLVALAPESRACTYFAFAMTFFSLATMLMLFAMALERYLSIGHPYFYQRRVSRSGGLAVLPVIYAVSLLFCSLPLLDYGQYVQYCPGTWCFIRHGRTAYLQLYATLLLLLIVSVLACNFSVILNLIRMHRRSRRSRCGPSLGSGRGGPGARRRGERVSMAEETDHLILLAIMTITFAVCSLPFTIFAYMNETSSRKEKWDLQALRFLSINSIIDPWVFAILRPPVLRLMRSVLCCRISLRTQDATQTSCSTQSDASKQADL
# From the text: 1. Nachweis des Antagonismus des humanen Prostaglandin E2 (Subtyp EP2) Rezeptorsignals
# (§1) Die Bindung von PGE2 an den EP2-Subtyp des humanen PGE2-Rezeptors induziert die Aktivierung membranständiger Adenylatzyklasen und führt zur Bildung von cAMP. In Gegenwart des Phosphodiesteraseinhibitors IBMX wird das durch diese Stimulation akkumulierte und mittels Zell-Lyse freigesetzte cAMP in einem kompetitiven Nachweisverfahren eingesetzt. In diesem Test konkurriert das cAMP im Lysat mit cAMP-XL665 um die Bindung eines Eu-Kryptat markierten Anti-cAMP Antikörpers.
# (§2) Dabei entsteht in Abwesenheit von zellulärem cAMP ein maximales Signal, welches auf der Kopplung dieses Antikörpers an das cAMP-XL665 Molekül beruht. Dadurch entsteht nach Anregung bei 337 nm ein auf FRET (fluorescence resonance energy transfer) basierendes, langanhaltendes Emissionssignal bei 665 nm (und bei 620 nm). Beide Signale werden in einem geeigneten Messgerät zeitlich versetzt, d.h. nach Abklingen der Hintergrundsfluoreszenz gemessen. Jegliche Erhöhung des durch Prostglandin-E2-Gabe bedingten niedrigen FRET-Signals (gemessen als Well-Ratio-Veränderung = Emission665nm/Emission620nm * 10000) zeigt die Wirkung von Antagonisten.
# 1.2.1. Test auf Antagonismus (Angaben pro Vertiefung einer 384-Loch-Platte):
# Die in einer Testplatte und 30 % DMSO vorgelegten Substanzlösungen (0.75 µl) wurden in 16 µl einer KRSB+IBMX-Stimulationslösung gelöst (1 X Krebs-Ringer Bicarbonate Buffer; Sigma-Aldrich # K-4002; inklusive 750 µM 3-Isobutyl-1-methylxanthine Sigma-Aldrich # I-7018), anschließend wurden 15 µl davon in eine medienfreie Zellkulturplatte überführt, die kurz zuvor mit KRSB gewaschen worden war.
# Nach einer 30-minütigen Vorinkubation bei Raumtemperatur (RT) wurden 5 µl einer 4xPGE2 Lösung (11 nM) zugegeben und in Gegenwart des Agonisten für weitere 60 min bei RT inkubiert (Volumen: ∼ 20 µl), bevor die Reaktion anschließend durch Zugabe von 5 µl Lysispuffer gestoppt und für weitere 20 min bei RT inkubiert wird (Volumen: ∼ 25 µl). Das Zell-Lysat wurde anschließend in eine Messplatte überführt und entsprechend den Herstellerangaben (cyclic AMP kit Cisbio International # 62AMPPEC) gemessen.
# [3] = biological target: T1, EP2-Subtyp des humanen PGE2-Rezeptors; experiment: cellular agonism test (HTRF cAMP detection, without PGE2); assay type: cell-based
# From the text: as §1, §2
# 1.2.2. Test auf Agonismus (Angaben pro Vertiefung einer 384-Loch-Platte): […]
IC50 [2] [nM],Compound,Unterdrückung der Kumulus Expansion ([1]; 100 - 200 µM),Wirkung im zellulären Agonismustest [3],Unterdrückung der Kumulus Expansion ([1]; 5 µM)
,"CC(C)Oc1ccc2c(=O)c3cc(C(=O)O)ccc3oc2c1 [AH 6809, reference compound]",ca. 30%,,
297,"Cc1[nH]c2c(F)ccc(C)c2c1CCNC(=O)c1cc2cc(C(=O)NCCC(N)=O)ccc2[nH]1 [Beispiel 5, 1H-Indol-2,5-dicarbonsäure 5-[(2-carbamoyl-ethyl)-amid] 2-{[2-(7-fluor-2,4-dimethyl-1H-indol-3-yl)-ethyl]-amid}]",,,
122,"Cc1[nH]c2c(F)ccc(C)c2c1CCNC(=O)c1cc2ccc(C(=O)NCC(C)(C)CO)cc2[nH]1 [Beispiel 8, 1H-Indol-2,6-dicarbonsäure 2-{[2-(7-fluor-2,4-dimethyl-1H-indol-3-yl)-ethyl]-amid} 6-[(3-hydroxy-2,2-dimethyl-propyl)-amid]]",,,
46,"Cc1[nH]c2c(F)ccc(C)c2c1CCNC(=O)c1cc2ccc(C(=O)NCCC(N)=O)cc2[nH]1 [Beispiel 10, 1H-Indol-2,6-dicarbonsäure 6-[(2-carbamoyl-ethyl)-amid] 2-{[2-(7-fluor-2,4-dimethyl-1H-indol-3-yl)-ethyl]-amid}]",,,

Compound,IC50 [2] [nM],Unterdrückung der Kumulus Expansion ([1]; 100 - 200 µM),Wirkung im zellulären Agonismustest [3],Unterdrückung der Kumulus Expansion ([1]; 5 µM)
"Cc1[nH]c2c(F)ccc(C)c2c1CCNC(=O)c1cc2ccc(C(=O)NCC(N)=O)cc2[nH]1 [Beispiel 6, 1H-Indol-2,6-dicarbonsäure 6-carbamoylmethyl-amid 2-{[2-(7-fluor-2,4-dimethyl-1H-indol-3-yl)-ethyl]-amid}]",22,,keine Inhibition,ca. 67%
